# How the values were obtained:
# [1] = Inhibition of HCV genotype 1a NS5A infected in Huh7 cells assessed as reduction in viral replication incubated 3 days and measured by bright Glo-luciferase reporter gene assay
# [2] = Inhibition of HCV genotype 4a NS5A infected in Huh7 cells assessed as reduction in viral replication incubated 3 days and measured by bright Glo-luciferase reporter gene assay
# [3] = Inhibition of HCV genotype 5a NS5A infected in Huh7 cells assessed as reduction in viral replication incubated 3 days and measured by bright Glo-luciferase reporter gene assay
# [4] = Inhibition of HCV genotype 2a NS5A infected in Huh7 cells assessed as reduction in viral replication incubated 3 days and measured by bright Glo-luciferase reporter gene assay
# [5] = Inhibition of HCV genotype 3a NS5A infected in Huh7 cells assessed as reduction in viral replication incubated 3 days and measured by bright Glo-luciferase reporter gene assay
# [6] = Inhibition of HCV genotype 1b NS5A infected in Huh7 cells assessed as reduction in viral replication incubated 3 days and measured by Bright-Glo luciferase assay
Structure (SMILES),IC50 [1],IC50 [2],IC50 [3],IC50 [4],IC50 [5],EC50 [6]
COC(=O)N[C@H](C(=O)N1CCC[C@H]1c1ncc(-c2ccc(C#CC#Cc3cnc([C@@H]4CCCN4C(=O)[C@H](NC(=O)OC)c4ccccc4)[nH]3)c(N(C)c3ccccc3)c2)[nH]1)C(C)C,0.072 nM,0.011 nM,0.027 nM,0.011 nM,0.035 nM,–
COC(=O)N[C@H](C(=O)N1CCC[C@H]1c1ncc(-c2ccc(C#CC#Cc3cnc([C@@H]4CCCN4C(=O)[C@H](NC(=O)OC)c4ccccc4)[nH]3)c(-c3cccc(F)c3F)c2)[nH]1)C(C)C,0.028 nM,–,0.019 nM,0.001 nM,0.016 nM,–
COC(=O)N[C@H](C(=O)N1CCC[C@H]1c1ncc(-c2cc(C)c(C#CC#Cc3cnc([C@@H]4CCCN4C(=O)[C@H](NC(=O)OC)c4ccccc4)[nH]3)c(-c3ccccc3)c2)[nH]1)C(C)C,0.124 nM,0.01 nM,–,0.003 nM,0.026 nM,–
COC(=O)N[C@H](C(=O)N1CCC[C@H]1c1ncc(-c2ccc(C#CC#Cc3cnc([C@@H]4CCCN4C(=O)[C@H](NC(=O)OC)c4ccccc4)[nH]3)c(-c3cccc(C(C)(C)C)c3)c2)[nH]1)C(C)C,1.07 nM,0.007 nM,0.107 nM,0.104 nM,0.093 nM,–
COC(=O)N[C@H](C(=O)N1CCC[C@H]1c1ncc(-c2ccc(C#CC#Cc3cnc([C@@H]4CCCN4C(=O)[C@H](NC(=O)OC)c4ccccc4)[nH]3)c(-c3ccc(N(C)C)cc3)c2)[nH]1)C(C)C,0.138 nM,0.011 nM,0.052 nM,0.013 nM,0.038 nM,–
COC(=O)N[C@H](C(=O)N1CCC[C@H]1c1ncc(C#CC#Cc2ccc(-c3cnc([C@@H]4CCCN4C(=O)[C@H](NC(=O)OC)c4ccccc4)[nH]3)cc2)[nH]1)C(C)C,0.21 nM,0.012 nM,0.1 nM,0.007 nM,0.629 nM,0.006 nM
COC(=O)N[C@H](C(=O)N1CCC[C@H]1c1ncc(-c2ccc(C#CC#Cc3cnc([C@@H]4CCCN4C(=O)[C@@H](NC(=O)OC)C(C)C)[nH]3)cc2)[nH]1)c1ccccc1,1.34 nM,0.123 nM,0.2 nM,0.12 nM,4.92 nM,0.012 nM
COC(=O)N[C@H](C(=O)N1CCC[C@H]1c1ncc(C#CC#Cc2ccc(-c3cnc([C@@H]4CCCN4C(=O)[C@@H](NC(=O)OC)C(C)C)[nH]3)cc2-c2cccc(-c3ccccc3)c2)[nH]1)C(C)C,0.47 nM,0.019 nM,0.763 nM,0.449 nM,2.79 nM,–
COC(=O)N[C@H](C(=O)N1CCC[C@H]1c1ncc(C#CC#Cc2c(C)cc(-c3cnc([C@@H]4CCCN4C(=O)[C@@H](NC(=O)OC)C(C)C)[nH]3)cc2-c2ccccc2)[nH]1)C(C)C,0.037 nM,0.006 nM,0.027 nM,0.008 nM,0.364 nM,–
COC(=O)N[C@H](C(=O)N1CCC[C@H]1c1ncc(C#CC#Cc2c(F)cc(-c3cnc([C@@H]4CCCN4C(=O)[C@@H](NC(=O)OC)C(C)C)[nH]3)cc2-c2ccccc2)[nH]1)C(C)C,0.064 nM,0.019 nM,0.12 nM,0.015 nM,0.459 nM,–
COC(=O)N[C@H](C(=O)N1CCC[C@H]1c1ncc(C#CC#Cc2ccc(-c3cnc([C@@H]4CCCN4C(=O)[C@@H](NC(=O)OC)C(C)C)[nH]3)cc2-c2ccccc2)[nH]1)C(C)C,0.072 nM,0.007 nM,0.129 nM,0.03 nM,1.31 nM,0.002 nM
COC(=O)N[C@H](C(=O)N1CCC[C@H]1c1ncc(-c2cc(F)c(C#CC#Cc3cnc([C@@H]4CCCN4C(=O)[C@H](NC(=O)OC)c4ccccc4)[nH]3)c(-c3ccccc3)c2)[nH]1)C(C)C,0.051 nM,0.012 nM,0.026 nM,0.005 nM,0.02 nM,–
COC(=O)N[C@H](C(=O)N1CCC[C@H]1c1ncc(-c2ccc(C#CC#Cc3cnc([C@@H]4CCCN4C(=O)[C@H](NC(=O)OC)c4ccccc4)[nH]3)c(Oc3ccccc3)c2)[nH]1)C(C)C,0.214 nM,0.008 nM,0.019 nM,0.013 nM,0.04 nM,–
COC(=O)N[C@H](C(=O)N1CCC[C@H]1c1ncc(-c2ccc(C#CC#Cc3cnc([C@@H]4CCCN4C(=O)[C@H](NC(=O)OC)c4ccccc4)[nH]3)c(Sc3ccccc3)c2)[nH]1)C(C)C,0.257 nM,0.009 nM,0.035 nM,0.014 nM,0.091 nM,–
COC(=O)N[C@H](C(=O)N1CCC[C@H]1c1ncc(-c2ccc(C#CC#Cc3cnc([C@@H]4CCCN4C(=O)[C@H](NC(=O)OC)c4ccccc4)[nH]3)c(-c3ccc(N4CCN(C)CC4)cc3)c2)[nH]1)C(C)C,0.113 nM,0.548 nM,1.4 nM,0.023 nM,0.353 nM,0.004 nM
COC(=O)N[C@H](C(=O)N1CCC[C@H]1c1ncc(-c2ccc(C#CC#Cc3cnc([C@@H]4CCCN4C(=O)[C@H](NC(=O)OC)c4ccccc4)[nH]3)c(-c3cccc(-c4ccccc4)c3)c2)[nH]1)C(C)C,0.626 nM,0.011 nM,0.122 nM,0.033 nM,0.123 nM,–
COC(=O)N[C@H](C(=O)N1CCC[C@H]1c1ncc(-c2ccc(C#CC#Cc3cnc([C@@H]4CCCN4C(=O)[C@H](NC(=O)OC)c4ccccc4)[nH]3)c(-c3ccc(-c4ccccc4)cc3)c2)[nH]1)C(C)C,0.418 nM,0.006 nM,0.131 nM,–,0.064 nM,–
COC(=O)N[C@H](C(=O)N1CCC[C@H]1c1ncc(-c2ccc(C#CC#Cc3cnc([C@@H]4CCCN4C(=O)[C@H](NC(=O)OC)c4ccccc4)[nH]3)c(N3CCN(C)CC3)c2)[nH]1)C(C)C,0.473 nM,> 10 nM,3.1 nM,0.143 nM,> 10 nM,0.034 nM
COC(=O)N[C@H](C(=O)N1CCC[C@H]1c1ncc(-c2ccc(C#CC#Cc3cnc([C@@H]4CCCN4C(=O)[C@H](NC(=O)OC)c4ccccc4)[nH]3)c(-c3ccccc3)c2)[nH]1)C(C)C,0.045 nM,–,0.026 nM,–,0.034 nM,0.0029 nM
COC(=O)N[C@H](C(=O)N1CCC[C@H]1c1ncc(-c2ccc(C#CC#Cc3cnc([C@@H]4CCCN4C(=O)[C@H](NC(=O)OC)c4ccccc4)[nH]3)c(-c3ccc(C(C)(C)C)cc3)c2)[nH]1)C(C)C,2.3 nM,0.01 nM,0.693 nM,–,0.362 nM,–
COC(=O)N[C@H](C(=O)N1CCC[C@H]1c1ncc(-c2ccc(C#CC#Cc3cnc([C@@H]4CCCN4C(=O)[C@H](NC(=O)OC)c4ccccc4)[nH]3)cc2)[nH]1)C(C)C,0.276 nM,0.036 nM,0.126 nM,0.016 nM,0.329 nM,0.007 nM
COC(=O)N[C@H](C(=O)N1CCC[C@H]1c1ncc(C#CC#Cc2ccc(-c3cnc([C@@H]4CCCN4C(=O)[C@@H](NC(=O)OC)C(C)C)[nH]3)cc2)[nH]1)c1ccccc1,0.758 nM,0.423 nM,6.4 nM,0.431 nM,10.7 nM,0.012 nM
COC(=O)N[C@H](C(=O)N1CCC[C@H]1c1ncc(C#CC#Cc2ccc(-c3cnc([C@@H]4CCCN4C(=O)[C@@H](NC(=O)OC)C(C)C)[nH]3)cc2-c2ccc3ccccc3c2)[nH]1)C(C)C,0.248 nM,0.008 nM,0.267 nM,0.028 nM,0.864 nM,–
COC(=O)N[C@H](C(=O)N1CCC[C@H]1c1ncc(C#CC#Cc2ccc(-c3cnc([C@@H]4CCCN4C(=O)[C@@H](NC(=O)OC)C(C)C)[nH]3)cc2-c2ccc(C(C)(C)C)cc2)[nH]1)C(C)C,0.642 nM,0.011 nM,0.356 nM,1.68 nM,1.29 nM,–
